Article PMC5325082 (Molecular Pharmacology, 2017)

Assays:
[1] = system: Aplysia californica AChBP, CC mutant; conditions: does not abolish ACh binding; ref Hansen and Taylor, 2007; cited from earlier work
[2] = target: rat α9α10 nAChR (wild type) (Rattus norvegicus, UniProt P43144+Q9JLB5); test: ACh-evoked currents, two-electrode voltage clamp in Xenopus laevis oocytes, wild-type receptor; assay type: cell-based; conditions: −70 mV
From the text: (§1) cDNAs encoding Gallus gallus (chick) or Rattus norvegicus (rat) α9 and α10 nAChR subunits were subcloned into a modified pGEMHE vector for expression studies in Xenopus laevis oocytes. Capped cRNAs were in vitro transcribed from linearized plasmid DNA templates using RiboMAX Large Scale RNA Production System (Promega, Madison, WI). Mutant subunits were produced using Quick Change XL II kit (Stratagene, La Jolla, CA). Amino acid sequences of rat and chicken α9, α10, and Torpedo α1 subunits were aligned using ClustalW (EMBL-EBI, Wellcome Genome Campus, Hinxton, Cambridgeshire). Residues were numbered according to the corresponding Torpedo α1 subunit mature protein ([Karlin, 2002]).
The maintenance of Xenopus laevis and the preparation and cRNA injection of stage V and VI oocytes have been described in detail elsewhere ([Verbitsky et al., 2000]). Typically, oocytes were injected with 50 nl of RNase-free water containing 0.01–1.0 ng of cRNA (at a 1:1 molar ratio when pairwise combined) and maintained in Barth’s solution at 18°C. […] Data were analyzed using Clampfit from the pClamp 6.1 software (Molecular Devices, Sunnyvale, CA). […]
Concentration-response curves were normalized to the maximal agonist response in each oocyte. […] Data were analyzed using Clampfit from the pClamp 6.1 software.

[3] = target: T1, chicken W55T double-mutant α9α10 receptors (Gallus gallus, UniProt Q9I8C7+Q9PTS8, W83T/W84T); test: ACh-evoked currents, two-electrode voltage clamp in Xenopus laevis oocytes; assay type: cell-based; conditions: 1 or 30 mM ACh, n = 10
T1 construct: expressed in transfected cells; host or cells: Xenopus laevis oocytes (cRNA injection)
From the text: as §1
(§2) The maintenance of Xenopus laevis and the preparation and cRNA injection of stage V and VI oocytes have been described in detail elsewhere ([Verbitsky et al., 2000]). Typically, oocytes were injected with 50 nl of RNase-free water containing 0.01–1.0 ng of cRNA (at a 1:1 molar ratio when pairwise combined) and maintained in Barth’s solution at 18°C. Electrophysiological recordings were performed 2–6 days after cRNA injection under two-electrode voltage clamp with an Oocyte Clamp OC-725B or C amplifier (Warner Instruments Corp., Hamden, CT). Recordings were filtered at a corner frequency of 10 Hz using a 900BT Tunable Active Filter (Frequency Devices Inc., Ottawa, IL). Data acquisition was performed using a Patch Panel PP-50 LAB/1 interface (Warner Instruments Corp.) at a rate of 10 points per second. Both voltage and current electrodes were filled with 3 M KCl and had resistances of ∼1 MΩ. Data were analyzed using Clampfit from the pClamp 6.1 software (Molecular Devices, Sunnyvale, CA). During electrophysiological recordings, oocytes were continuously superfused (∼15 ml/min) with normal frog saline composed of: 115 mM NaCl, 2.5 mM KCl, 1.8 mM CaCl2, and 10 mM HEPES buffer, pH 7.2. ACh was added to the perfusion solution for application. Unless otherwise indicated, the membrane potential was clamped to −70 mV. To minimize activation of the endogenous Ca^2+ sensitive chloride current ([Elgoyhen et al., 2001]), all experiments were performed in oocytes incubated with the Ca^2+ chelator 1,2-bis(2-aminophenoxy)ethane-N,N,N′,N′-tetraacetic acid (acetoxymethyl ester) (100 µM) for 3 hours before electrophysiological recordings.
(§3) Concentration-response curves were normalized to the maximal agonist response in each oocyte. The mean and S.E.M. values of the responses are represented. Agonist concentration-response curves were iteratively fitted, using Prism 5 software (GraphPad Software Inc., La Jolla, CA), with the equation: I/Imax = A^nH/(A^nH + EC50^nH), where I is the peak inward current evoked by the agonist at concentration A; Imax is the current evoked by the concentration of the agonist eliciting a maximal response; EC50 is the concentration of the agonist inducing a half-maximal current response; and nH is the Hill coefficient. Data were analyzed using Clampfit from the pClamp 6.1 software.

[4] = target: T2, rat W55T double-mutant α9α10 receptors (Rattus norvegicus, UniProt P43144+Q9JLB5, W81T/W82T); test: as above; assay type: cell-based; conditions: 1 or 30 mM ACh, n = 15
T2 construct: expressed in transfected cells; host or cells: Xenopus laevis oocytes (cRNA injection)
From the text: as §1, §2, §3

[5] = target: chicken α9W55Tα10 receptor (Gallus gallus, UniProt Q9I8C7+Q9PTS8, W84T); test: as above; assay type: cell-based
From the text: as §1, §2, §3

[6] = target: chicken α9α10W55T receptor (Gallus gallus, UniProt Q9I8C7+Q9PTS8, W83T); test: as above; assay type: cell-based
From the text: as §1, §2, §3

In the case of CC(=O)OCC[N+](C)(C)C [ACh, acetylcholine], the “Decrease in affinity on mutation of the CC” value [1] is given as 10 fold, the “Imax (maximal evoked current)” value [2] is given as 298 ± 48 nA and the “Currents evoked by ACh” value [3] is given as “failed to evoke currents”. The “Currents evoked by ACh” value [4] was “failed to evoke currents”, the EC50 [5] was 357 ± 75 µM and the “Imax (maximal evoked current)” value [5] was 59 ± 8 nA. For the same molecule, the EC50 [6] was 334 ± 13 µM and the “Imax (maximal evoked current)” value [6] was 159 ± 32 nA.
